We go through 33 compounds from patent publication US20240034727A1, “IMIDAZOLE COMPOUNDS AS INHIBITORS OF ENPP1” (STINGRAY THERAPEUTICS, INC., priority 2020, published 2024).

pIC50: −log10 of the molar value.

The test concerns the target Recombinant Human ENPP-1 Protein (Homo sapiens (Human), UniProt P22413). The experiment in a line: ENPP1 Inhibition Assay. Format: biochemical. The conditions noted are these: substrate Thymidine 5′-monophosphate p-nitrophenol ester; pH 9.0; 37° C. for 45 minutes; absorbance at 405 nm. The procedure:
Assay Buffer: 1 mM CaCl2), 0.2 mM ZnCl2, 50 mM Tris, pH 9.0. Substrate: 8 mM Thymidine 5′-monophosphate p-nitrophenol ester sodium salt (Sigma Cat #T4510). Enzyme: […] Recombinant Human ENPP-1 Protein (R&D Cat #6136-EN-010) in DMSO in 96-well clear assay plates.
An eight point serial dilution of drugs was prepared in 10× in assay buffer with the final assay concentrations starting at 10 μM, 3 μM, 1 μM, 0.3 μM and 0 μM. A dilution of DMSO was included as a control. The assay plate was set up as follows with each well in duplicate: 81 μL assay buffer+10 μL ENPP1 inhibitor or DMSO+5 μL Substrate+4 μL Enzyme. Both the enzyme and substrate was added to opposite sides of the well to ensure that there was no interaction until all wells had both components. The plate was then centrifuged gently for 10 seconds, followed by an incubation at 37° C. for 45 minutes. The reaction was quantified by measuring absorbance at 405 nm using the Envision.
IC50 values are determined using GraphPad Prism 5 software. The data were entered as an X-Y plot into the software as percent inhibition for each concentration of the drug. The concentration values of the drug were log transformed and the nonlinear regression was carried out using the “sigmoidal dose-response (variable slope)” option within the GraphPad software to model the data and calculate IC50 values. The IC50 values reported are the concentration of drug at which 50% inhibition was reached.

Sequence of Recombinant Human ENPP-1 Protein (P22413 whole entry): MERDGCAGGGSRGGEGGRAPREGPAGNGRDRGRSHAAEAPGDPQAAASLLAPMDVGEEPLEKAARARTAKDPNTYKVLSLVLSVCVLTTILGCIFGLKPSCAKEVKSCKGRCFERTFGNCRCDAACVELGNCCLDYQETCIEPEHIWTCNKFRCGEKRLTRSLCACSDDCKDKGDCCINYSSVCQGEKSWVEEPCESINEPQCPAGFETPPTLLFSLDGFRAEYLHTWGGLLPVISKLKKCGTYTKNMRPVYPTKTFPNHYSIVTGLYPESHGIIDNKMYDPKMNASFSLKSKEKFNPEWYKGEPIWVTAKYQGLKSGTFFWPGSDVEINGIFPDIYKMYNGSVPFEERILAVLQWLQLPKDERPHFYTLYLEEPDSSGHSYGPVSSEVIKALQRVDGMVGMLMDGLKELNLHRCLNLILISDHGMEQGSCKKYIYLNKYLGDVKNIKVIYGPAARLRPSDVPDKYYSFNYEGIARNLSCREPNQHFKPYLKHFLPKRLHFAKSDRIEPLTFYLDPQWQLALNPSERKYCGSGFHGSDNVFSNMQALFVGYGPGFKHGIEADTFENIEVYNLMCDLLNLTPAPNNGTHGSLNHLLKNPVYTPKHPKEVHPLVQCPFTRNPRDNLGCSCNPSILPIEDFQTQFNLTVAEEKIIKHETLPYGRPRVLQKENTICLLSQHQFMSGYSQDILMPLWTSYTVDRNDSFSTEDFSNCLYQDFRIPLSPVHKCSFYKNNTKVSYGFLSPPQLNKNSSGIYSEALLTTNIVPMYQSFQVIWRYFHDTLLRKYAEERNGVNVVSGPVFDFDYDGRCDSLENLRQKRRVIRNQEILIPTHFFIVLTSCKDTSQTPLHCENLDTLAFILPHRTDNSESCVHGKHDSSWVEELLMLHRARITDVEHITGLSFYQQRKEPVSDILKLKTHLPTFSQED

For `COc1ccc(NC(=O)CSc2nc(C(N)=O)c[nH]2)cc1OC` [Compound I-1, 2-((2-((3,4-dimethoxyphenyl)amino)-2-oxoethyl)thio)-1H-imidazole-4-carboxamid], the pIC50 was over 6.70.

Take `CNC(=O)c1c[nH]c(SCC(=O)Nc2ccc(OC)c(OC)c2)n1` [Compound I-2, 2-((2-((3,4-dimethoxyphenyl)amino)-2-oxoethyl)thio)-N-methyl-1H-imidazole-4-carboxamide]: the pIC50 was 5.00 to 6.70.

As to `COc1ccc(NC(=O)CSc2nc(C(=O)O)c[nH]2)cc1OC` [Compound I-3, 2-((2-((3,4-dimethoxyphenyl)amino)-2-oxoethyl)thio)-1H-imidazole-4-carboxylic acid], the pIC50 is over 6.70.

With `COc1ccc(NC(=O)CSc2nc(C#N)c[nH]2)cc1OC` [Compound I-4, 2-((4-cyano-1H-imidazol-2-yl)thio)-N-(3,4-dimethoxyphenyl)acetamide], the pIC50 is over 6.70.

In the case of `COc1ccc(NC(=O)CSc2nc(/C(N)=N/O)c[nH]2)cc1OC` [Compound I-5, (Z)-N-(3,4-dimethoxyphenyl)-2-((4-(N′-hydroxycarbamimidoyl)-1H-imidazol-2-yl)thio)acetamide], the pIC50 was over 6.70.

As for `CCOC(=O)c1c[nH]c(SCC(=O)Nc2ccc(OC)c(OC)c2)n1` [Compound I-6, ethyl 2-((2-((3,4-dimethoxyphenyl)amino)-2-oxoethyl)thio)-1H-imidazole-4-carboxylate], the pIC50 was over 6.70.

In the case of `O=C(CSc1nc(C(=O)O)c[nH]1)Nc1ccc(Cl)cc1F` [Compound I-7, 2-((2-((4-chloro-2-fluorophenyl)amino)-2-oxoethyl)thio)-1H-imidazole-4-carboxylic acid], the pIC50 was 5.00 to 6.70.

Regarding `COc1ccc(NC(=O)CSc2nc(C(=O)O)c[nH]2)c(OC)c1F` [Compound I-9, 2-((2-((3-fluoro-2,4-dimethoxyphenyl)amino)-2-oxoethyl)thio)-1H-imidazole-4-carboxylic acid], the pIC50 was under 5.00.

On to `COc1ccc(NC(=O)CSc2nc(C(=O)O)c[nH]2)cc1F` [Compound I-10, 2-((2-((3-fluoro-4-methoxyphenyl)amino)-2-oxoethyl)thio)-1H-imidazole-4-carboxylic acid], for which the pIC50 was over 6.70.

For `O=C(CSc1nc(C(=O)O)c[nH]1)NCc1cccc(Br)c1` [Compound I-11, 2-((2-((3-bromobenzyl)amino)-2-oxoethyl)thio)-1H-imidazole-4-carboxylic acid], the pIC50 is under 5.00.

On to `O=C(CSc1nc(C(=O)O)c[nH]1)Nc1c(F)cccc1F` [Compound I-13, 2-((2-((2,6-difluorophenyl)amino)-2-oxoethyl)thio)-1H-imidazole-4-carboxylic acid], for which the pIC50 is under 5.00.

As to `COc1cc(NC(=O)CSc2nc(C(=O)O)c[nH]2)ccc1Cl` [Compound I-14, 2-((2-((4-chloro-3-methoxyphenyl)amino)-2-oxoethyl)thio)-1H-imidazole-4-carboxylic acid], the pIC50 was over 6.70.

As to `COc1ccc(CNC(=O)CSc2nc(C(=O)O)c[nH]2)c(OC)c1` [Compound I-15, 2-((2-((2,4-dimethoxybenzyl)amino)-2-oxoethyl)thio)-1H-imidazole-4-carboxylic acid], the pIC50 was under 5.00.

Consider `COc1ccc(Oc2ccc(NC(=O)CSc3nc(C(=O)O)c[nH]3)cc2)cc1` [Compound I-16, 2-((2-((4-(4-methoxyphenoxy)phenyl)amino)-2-oxoethyl)thio)-1H-imidazole-4-carboxylic acid], for which the pIC50 is 5.00 to 6.70.

For `Cc1ccc(F)c(NC(=O)CSc2nc(C(=O)O)c[nH]2)c1` [Compound I-17, 2-((2-((2-fluoro-5-methylphenyl)amino)-2-oxoethyl)thio)-1H-imidazole-4-carboxylic acid], the pIC50 was under 5.00.

On to `O=C(CSc1nc(C(=O)O)c[nH]1)Nc1c(Cl)cccc1Cl` [Compound I-18, 2-((2-((2,6-dichlorophenyl)amino)-2-oxoethyl)thio)-1H-imidazole-4-carboxylic acid], for which the pIC50 was under 5.00.

As for `Cc1cccc(NC(=O)CSc2nc(C(=O)O)c[nH]2)c1C` [Compound I-19, 2-((2-((2,3-dimethylphenyl)amino)-2-oxoethyl)thio)-1H-imidazole-4-carboxylic acid], the pIC50 was under 5.00.

For `O=C(CSc1nc(C(=O)O)c[nH]1)Nc1ccc(Cl)cc1` [Compound I-20, 2-((2-((4-chlorophenyl)amino)-2-oxoethyl)thio)-1H-imidazole-4-carboxylic acid], the pIC50 was 5.00 to 6.70.

For the compound `O=C(CSc1nc(C(=O)O)c[nH]1)NCc1ccc(Cl)cc1` [Compound I-22, 2-((2-((4-chlorobenzyl)amino)-2-oxoethyl)thio)-1H-imidazole-4-carboxylic acid], the pIC50 was under 5.00.

In the case of `O=C(CSc1nc(C(=O)O)c[nH]1)Nc1ccc(Br)cc1` [Compound I-23, 2-((2-((4-bromophenyl)amino)-2-oxoethyl)thio)-1H-imidazole-4-carboxylic acid], the negative logarithm of the IC50 (pIC50) was 5.00 to 6.70.

For `O=C(CSc1nc(C(=O)O)c[nH]1)Nc1ccc(N2CCOCC2)cc1` [Compound I-24, 2-((2-((4-morpholinophenyl)amino)-2-oxoethyl)thio)-1H-imidazole-4-carboxylic acid], the pIC50 was under 5.00.

On to `COc1cc(NC(=O)CSc2nc(C(=O)O)c[nH]2)cc(OC)c1` [Compound I-25, 2-((2-((3,5-dimethoxyphenyl)amino)-2-oxoethyl)thio)-1H-imidazole-4-carboxylic acid], for which the pIC50 was 5.00 to 6.70.

As for `COc1ccc(NC(=O)CSc2nc(C(=O)O)c[nH]2)c(OC)c1OC` [Compound I-26, 2-((2-oxo-2-((2,3,4-trimethoxyphenyl)amino)ethyl)thio)-1H-imidazole-4-carboxylic acid], the pIC50 was under 5.00.

On to `COc1cc(NC(=O)CSc2nc(C(=O)O)c[nH]2)c(OC)cc1Cl` [Compound I-27, 2-((2-((4-chloro-2,5-dimethoxyphenyl)amino)-2-oxoethyl)thio)-1H-imidazole-4-carboxylic acid], for which the pIC50 is 5.00 to 6.70.

As for `COc1ccc(NC(=O)CSc2nc(-c3nnn[nH]3)c[nH]2)cc1OC` [Compound I-28, 2-((4-(1H-tetrazol-5-yl)-1H-imidazol-2-yl)thio)-N-(3,4-dimethoxyphenyl)acetamide], the pIC50 is over 6.70.

As to `COc1ccc(NC(=O)CSc2nc(C(=O)OCCN(C)C)c[nH]2)cc1OC` [Compound I-29, 2-(dimethylamino)ethyl 2-((2-((3,4-dimethoxyphenyl)amino)-2-oxoethyl)thio)-1H-imidazole-4-carboxylate], the pIC50 was 5.00 to 6.70.

`COc1ccc(NC(=O)CSc2nc(C(=O)OCC(O)CO)c[nH]2)cc1OC` (stereo not drawn) [Compound I-30, 2,3-dihydroxypropyl 2-((2-((3,4-dimethoxyphenyl)amino)-2-oxoethyl)thio)-1H-imidazole-4-carboxylate]: the pIC50 was over 6.70.

In the case of `Cc1ccc(NC(=O)CSc2nc(C(=O)O)c[nH]2)cc1C` [Compound I-31, 2-((2-((3,4-dimethylphenyl)amino)-2-oxoethyl)thio)-1H-imidazole-4-carboxylic acid], the pIC50 is under 5.00.

For the compound `COc1ccc(CNC(=O)CSc2nc(C(=O)O)c[nH]2)cc1OC` [Compound I-32, 2-((2-((3,4-dimethoxybenzyl)amino)-2-oxoethyl)thio)-1H-imidazole-4-carboxylic acid], the pIC50 was 5.00 to 6.70.

On to `COc1ccc(NC(=O)CSc2nc(C(=O)O)c[nH]2)cc1C#N` [Compound I-33, 2-((2-((3-cyano-4-methoxyphenyl)amino)-2-oxoethyl)thio)-1H-imidazole-4-carboxylic acid], for which the pIC50 was over 6.70.

In the case of `COc1ccc(NC(=O)CSc2nc(C(=O)O)c[nH]2)cc1Br` [Compound I-34, 2-((2-((3-bromo-4-methoxyphenyl)amino)-2-oxoethyl)thio)-1H-imidazole-4-carboxylic acid], the pIC50 was over 6.70.

Regarding `COc1ccc(Br)cc1NC(=O)CSc1nc(C(=O)O)c[nH]1` [Compound I-36, 2-((2-((5-bromo-2-methoxyphenyl)amino)-2-oxoethyl)thio)-1H-imidazole-4-carboxylic acid], the pIC50 was 5.00 to 6.70.

For the compound `COc1ccc(CNC(=O)CSc2nc(C(=O)O)c[nH]2)cc1` [Compound I-37, 2-((2-((4-methoxybenzyl)amino)-2-oxoethyl)thio)-1H-imidazole-4-carboxylic acid], the pIC50 was 5.00 to 6.70.

By pIC50 is commonly meant the IC50 on a negative log10 scale, so that one unit is a factor of ten.
